US8536193B2, “Inhibitors of AKT activity” (Merck Sharp & Dohme Corp., priority 2008, dated 2013)

Legend:
Akt2 kinase = Akt2 kinase (Homo sapiens (Human), UniProt P31751); assay: Akt kinase assay (HTRF, GSK-derived biotinylated peptide substrate); format: biochemical
Protocol: (§1) Activated Akt isoforms and pleckstrin homology domain deletion constructs were assayed utilizing a GSK-derived biotinylated peptide substrate. The extent of peptide phosphorylation was determined by Homogeneous Time Resolved Fluorescence (HTRF) using a lanthanide chelate (Lance)-coupled monoclonal antibody specific for the phosphopeptide in combination with a streptavidin-linked allophycocyanin (SA-APC) fluorophore which will bind to the biotin moiety on the peptide. When the Lance and APC are in proximity (i.e. bound to the same phosphopeptide molecule), a non-radiative energy transfer takes place from the Lance to the APC, followed by emission of light from APC at 665 nm.
(§2) Materials Required for the Assay:
(§3) A. Activated Akt isozyme or pleckstrin homology domain deleted construct
(§4) B. Akt peptide substrate: GSK3α (S21) Peptide #3928 biotin-[…] (SEQ.ID.NO.:15), Macromolecular Resources.
(§5) C. Lance labeled anti-phospho GSK3α monoclonal antibody (Cell Signaling Technology, clone #27).
(§6) D. SA-APC (Prozyme catalog no. PJ25S lot #896067).
(§7) E. Microfluor®B U Bottom Microtiter Plates (Dynex Technologies, Catalog no. 7205).
(§8) F. Discovery® HTRF Microplate Analyzer, Packard Instrument Company.
(§9) G. 100× Protease Inhibitor Cocktail (PIC): 1 mg/mL benzamidine, 0.5 mg/mL pepstatin, 0.5 mg/mL leupeptin, 0.5 mg/mL aprotinin.
(§10) H. 10× Assay Buffer: 500 mM HEPES, pH 7.5, 1% PEG, […], 1 mM EGTA, 1% BSA, 20 mM θ-Glycerol phosphate.
(§11) I. Quench Buffer: 50 mM HEPES pH 7.3, 16.6 mM EDTA, 0.1% BSA, 0.1% Triton X-100, 0.17 nM Lance labeled monoclonal antibody clone #27, 0.0067 mg/mL SA-APC
(§12) J. ATP/MgCl2 working solution: 1× Assay buffer, 1 mM DTT, 1×PIC, 125 mM KCl, 5% Glycerol, 25 mM MgCl2, 375 μM ATP
(§13) K. Enzyme working solution: 1× Assay buffer, 1 mM DTT, 1× PIC, 5% Glycerol, active Akt. The final enzyme concentrations were selected so that the assay was in a linear response range.
(§14) L. Peptide working solution: 1× Assay buffer, 1 mM DTT, 1× PIC, 5% Glycerol, 2 μM GSK3 biotinylated peptide #3928
(§15) The reaction is assembled by adding 16 μl, of the ATP/MgCl2 working solution to the appropriate wells of a 96-well microtiter plate. Inhibitor or vehicle (1.0 μL) is added followed by 10 μL of peptide working solution. The reaction is started by adding 13 μL of the enzyme working solution and mixing. The reaction is allowed to proceed for 50 min and then stopped by the addition of 60 μl, HTRF quench buffer. The stopped reactions were incubated at room temperature for at least 30 min and then read on the Discovery instrument.

Akt1 kinase = Akt1 kinase (Homo sapiens (Human), UniProt P31749); assay: as above; format: biochemical
Protocol: as §1, §2, §3, §4, §5, §6, §7, §8, §9, §10, §11, §12, §13, §14, §15

Akt1 kinase, sequence (P31749 whole entry): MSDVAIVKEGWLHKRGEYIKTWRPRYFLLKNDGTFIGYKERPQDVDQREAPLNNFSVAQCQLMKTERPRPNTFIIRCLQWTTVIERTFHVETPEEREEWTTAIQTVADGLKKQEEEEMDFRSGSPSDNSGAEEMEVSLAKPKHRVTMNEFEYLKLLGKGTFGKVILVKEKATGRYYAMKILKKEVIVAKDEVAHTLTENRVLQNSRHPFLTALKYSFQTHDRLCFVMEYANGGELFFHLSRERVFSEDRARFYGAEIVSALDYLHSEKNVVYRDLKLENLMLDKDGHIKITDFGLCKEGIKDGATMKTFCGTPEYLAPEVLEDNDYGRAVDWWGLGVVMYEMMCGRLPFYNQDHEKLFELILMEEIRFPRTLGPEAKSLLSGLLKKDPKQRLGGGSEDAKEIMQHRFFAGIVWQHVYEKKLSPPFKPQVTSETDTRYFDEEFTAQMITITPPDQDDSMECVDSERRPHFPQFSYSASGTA
Akt2 kinase, sequence (P31751 whole entry, the tested form may be a part, canonical isoform): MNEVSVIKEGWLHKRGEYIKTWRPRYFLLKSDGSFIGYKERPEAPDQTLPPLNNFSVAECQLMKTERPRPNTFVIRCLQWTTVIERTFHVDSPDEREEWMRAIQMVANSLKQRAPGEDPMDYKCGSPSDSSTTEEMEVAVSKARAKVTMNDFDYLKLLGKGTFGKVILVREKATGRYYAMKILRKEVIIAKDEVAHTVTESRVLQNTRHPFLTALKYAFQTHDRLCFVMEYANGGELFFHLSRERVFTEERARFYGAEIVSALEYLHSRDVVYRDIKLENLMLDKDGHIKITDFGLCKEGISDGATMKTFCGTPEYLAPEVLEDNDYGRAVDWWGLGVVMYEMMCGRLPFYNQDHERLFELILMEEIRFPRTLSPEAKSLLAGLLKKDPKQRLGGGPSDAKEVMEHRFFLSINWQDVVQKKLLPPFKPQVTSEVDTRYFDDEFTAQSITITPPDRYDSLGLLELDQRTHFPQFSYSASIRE

IC50 (Akt2 kinase) [nM]	IC50 (Akt1 kinase) [nM]	SMILES
24	6.1	Nc1nnc2ccc3nc(-c4ccc(C5(N)CCC5)cc4)c(-c4ccccc4)cc3n12 [EXAMPLE 3-1, 7-[4-(1-aminocyclobutyl)phenyl]-8-phenyl[1,2,4]triazolo[4,3-a]-1,5-naphthylidin-1-amine]
1.7	0.38	C[C@]1(O)C[C@@](N)(c2ccc(-c3nc4ccc5nnc(C(F)F)n5c4cc3-c3ccccc3)cc2)C1 [EXAMPLE 10-4, trans-3-amino-3-{4-[1-(difluoromethyl)-8-phenyl[1,2,4]triazolo[4,3-a]-1,5-naphthyridin-7-yl]phenyl}-1-methylcyclobutanol]
50	8.2	Cc1nnc2ccc3nc(-c4ccc(C5(N)CCC5)cc4)c(-c4ccccc4)cc3n12 [EXAMPLE 4-1, 1-[4-(1-methyl-8-phenyl[1,2,4]triazolo[4,3-a]-1,5-naphthylidin-7-yl)phenyl]cyclobutanamine]
32	2.3	NC1(c2ccc(-c3nc4ccc5nnc(-c6ccccc6)n5c4cc3-c3ccccc3)cc2)CCC1 [EXAMPLE 2-1, 1-[4-(1,8-diphenyl[1,2,4]triazolo[4,3-a]-1,5-naphthylidin-7-yl)phenyl]cyclobutanamine]

The remaining lines, values behind:

SMILES	IC50 (Akt2 kinase) [nM]	IC50 (Akt1 kinase) [nM]
O=C(Cc1cccnc1)NC1(c2ccc(-c3nc4ccc5nnc(O)n5c4cc3-c3ccccc3)cc2)CCC1 [EXAMPLE 1-9, N-{1-[4-(1-hydroxy-8-phenyl[1,2,4]triazolo[4,3-a]-1,5-naphthylidin-7-yl)phenyl]cyclobutyl}-2-(3-pyridinyl)acetamide]	200	39
NC1(c2ccc(-c3nc4ccc5nnc(-c6ccccc6)n5c4cc3-c3ccccc3)cc2)CC(F)(F)C1 [EXAMPLE 5-12, 1-[4-(1,8-diphenyl[1,2,4]triazolo[4,3-a]-1,5-naphthyridin-7-yl)phenyl]-3,3-difluorocyclobutanamine]	140	10
CC1(O)CC(N)(c2ccc(-c3nc4ccc5nnc(-c6nnc[nH]6)n5c4cc3-c3ccccc3)cc2)C1 (stereo not drawn) [EXAMPLE 7-26, cis-3-amino-1-methyl-3-{4-[8-phenyl-1-(4H-1,2,4-triazol-3-yl)[1,2,4]triazolo[4,3-a][1,5]naphthyridin-7-yl]phenyl}cyclobutanol]	12.6	0.7
NC1(c2ccc(-c3nc4ccc5nnc(C(F)F)n5c4cc3-c3ccccc3)cc2)CC(O)(C2CC2)C1 (stereo not drawn) [EXAMPLE 10-5, trans-3-amino-1-cyclopropyl-3-{4-[1-(difluoromethyl)-8-phenyl-[1,2,4]triazolo[4,3-a]-1,5-naphthyridin-7-yl]phenyl}cyclobutanol]	2.2	0.34
